Measurements reported in patent publication US11180474B2 (BRISTOL-MYERS SQUIBB COMPANY, priority 2016, dated 2021).

Experiments:
[1] = molecular target: T1, human TLR7 (Homo sapiens, UniProt Q9NYK1); assay: TLR7 inhibition reporter assay (HEK-Blue cells, SEAP reporter, gardiquimod stimulation); type: cell-based; details: HEK-Blue cells overexpressing human TLR7, gardiquimod 7.5 μM
T1 construct: host or cells: HEK-Blue cells
T1 sequence (Q9NYK1 27-1049): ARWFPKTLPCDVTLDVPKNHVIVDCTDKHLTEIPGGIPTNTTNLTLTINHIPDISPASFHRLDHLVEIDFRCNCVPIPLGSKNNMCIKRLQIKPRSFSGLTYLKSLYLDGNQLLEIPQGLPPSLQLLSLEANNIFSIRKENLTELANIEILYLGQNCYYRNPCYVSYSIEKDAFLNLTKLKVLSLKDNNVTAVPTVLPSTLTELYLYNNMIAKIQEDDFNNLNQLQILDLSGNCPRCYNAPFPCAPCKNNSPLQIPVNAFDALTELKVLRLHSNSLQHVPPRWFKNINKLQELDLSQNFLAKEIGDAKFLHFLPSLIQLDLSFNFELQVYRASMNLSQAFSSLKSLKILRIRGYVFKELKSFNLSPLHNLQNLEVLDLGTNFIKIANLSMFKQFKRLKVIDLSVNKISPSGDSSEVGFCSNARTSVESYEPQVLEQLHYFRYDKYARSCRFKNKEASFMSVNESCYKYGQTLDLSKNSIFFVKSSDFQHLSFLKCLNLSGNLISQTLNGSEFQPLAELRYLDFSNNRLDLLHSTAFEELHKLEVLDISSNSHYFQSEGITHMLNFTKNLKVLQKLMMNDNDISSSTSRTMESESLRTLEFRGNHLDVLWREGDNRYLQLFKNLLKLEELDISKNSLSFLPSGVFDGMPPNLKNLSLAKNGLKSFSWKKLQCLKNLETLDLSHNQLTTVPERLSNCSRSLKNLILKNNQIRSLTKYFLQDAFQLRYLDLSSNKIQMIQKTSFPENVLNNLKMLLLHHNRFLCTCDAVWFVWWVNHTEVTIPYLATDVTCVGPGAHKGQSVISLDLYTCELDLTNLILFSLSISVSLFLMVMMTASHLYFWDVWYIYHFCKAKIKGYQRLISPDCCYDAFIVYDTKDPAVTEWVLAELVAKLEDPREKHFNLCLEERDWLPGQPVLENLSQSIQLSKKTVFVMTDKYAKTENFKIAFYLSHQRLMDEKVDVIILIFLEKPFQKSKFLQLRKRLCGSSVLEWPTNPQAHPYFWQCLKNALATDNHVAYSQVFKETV
Method: (§1) TLR7/8/9 Inhibition Reporter Assays
Briefly, cells are seeded into Greiner 384 well plates (15000 cells per well for TLR7, 20,000 for TLR8 and 25,000 for TLR9) and then treated with test compounds in DMSO to yield a final dose response concentration range of 0.05 nM-50 μM. […] After a 22 hour incubation at 37° C., 5% CO2, SEAP levels are determined with the addition of HEK-Blue™ Detection reagent (Invivogen), a cell culture medium that allows for detection of SEAP, according to manufacturer's specifications. The percent inhibition is determined as the % reduction in the HEK-Blue signal present in wells treated with agonist plus DMSO alone compared to wells treated with a known inhibitor.

[2] = molecular target: T2, human TLR9 (Homo sapiens, UniProt Q9NR96); assay: TLR9 inhibition reporter assay (HEK-Blue cells, SEAP reporter, ODN2006 stimulation); type: cell-based; details: HEK-Blue cells overexpressing human TLR9, ODN2006 5 nM
T2 construct: host or cells: HEK-Blue cells
T2 sequence (Q9NR96 26-1032): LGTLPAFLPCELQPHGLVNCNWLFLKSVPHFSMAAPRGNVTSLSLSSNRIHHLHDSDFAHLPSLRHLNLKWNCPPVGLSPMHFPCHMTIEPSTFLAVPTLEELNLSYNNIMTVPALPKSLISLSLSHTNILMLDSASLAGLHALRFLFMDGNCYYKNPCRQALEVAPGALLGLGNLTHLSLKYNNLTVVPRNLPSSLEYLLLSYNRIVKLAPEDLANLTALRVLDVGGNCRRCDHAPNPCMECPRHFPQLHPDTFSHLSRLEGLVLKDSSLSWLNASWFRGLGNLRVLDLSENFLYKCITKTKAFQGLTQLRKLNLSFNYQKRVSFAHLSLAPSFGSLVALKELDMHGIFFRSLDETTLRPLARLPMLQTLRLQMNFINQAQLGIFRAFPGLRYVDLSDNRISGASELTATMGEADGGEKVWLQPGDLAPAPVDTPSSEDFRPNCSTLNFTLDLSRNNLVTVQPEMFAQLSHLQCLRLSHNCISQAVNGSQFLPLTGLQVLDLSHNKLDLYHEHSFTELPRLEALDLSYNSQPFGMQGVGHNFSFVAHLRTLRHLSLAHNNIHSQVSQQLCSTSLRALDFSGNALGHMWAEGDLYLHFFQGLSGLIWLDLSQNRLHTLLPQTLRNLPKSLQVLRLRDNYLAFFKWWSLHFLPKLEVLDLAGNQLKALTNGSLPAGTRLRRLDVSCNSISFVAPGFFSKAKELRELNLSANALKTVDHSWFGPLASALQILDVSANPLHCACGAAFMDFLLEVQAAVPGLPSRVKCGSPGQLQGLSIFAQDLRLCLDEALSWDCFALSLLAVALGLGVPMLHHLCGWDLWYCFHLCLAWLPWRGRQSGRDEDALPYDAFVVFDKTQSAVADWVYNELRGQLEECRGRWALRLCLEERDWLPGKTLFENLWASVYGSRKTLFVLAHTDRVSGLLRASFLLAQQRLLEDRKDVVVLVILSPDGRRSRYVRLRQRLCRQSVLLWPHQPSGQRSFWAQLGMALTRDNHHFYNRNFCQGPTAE
Method: as §1
HEK-Blue™-cells (Invivogen) overexpressing human TLR7, TLR8 or TLR9 receptors were used for screening inhibitors of these receptors using an inducible SEAP (secreted embryonic alkaline phosphatase) reporter gene under the control of the IFN-β minimal promoter fused to five NF-κB and AP-1-binding sites. Briefly, cells are seeded into Greiner 384 well plates (15000 cells per well for TLR7, 20,000 for TLR8 and 25,000 for TLR9) and then treated with test compounds in DMSO to yield a final dose response concentration range of 0.05 nM-50 μM. After a 30 minute compound pre-treatment at room temperature, the cells are then stimulated with a TLR7 ligand (gardiquimod at a final concentration of 7.5 μM), TLR8 ligand (R848 at a final concentration of 15.9 μM) or TLR9 ligand (ODN2006 at a final concentration of 5 nM) to activate NF-κB and AP-1 which induce the production of SEAP. After a 22 hour incubation at 37° C., 5% CO2, SEAP levels are determined with the addition of HEK-Blue™ Detection reagent (Invivogen), a cell culture medium that allows for detection of SEAP, according to manufacturer's specifications. The percent inhibition is determined as the % reduction in the HEK-Blue signal present in wells treated with agonist plus DMSO alone compared to wells treated with a known inhibitor.

Structure (SMILES) | IC50 [1] [nM] | IC50 [2] [nM]
CCOC(=O)C1CC1CN1CCC(N2CCC(c3ccc4[nH]c(-c5ccc(OC)c(OC)c5)c(C)c4c3)CC2)CC1 (centres unmarked) [Example 60, ethyl 2-((4-(2-(3,4-dimethoxyphenyl)-3-methyl-1H-indol-5-yl)-[1,4′-bipiperidin]-1′-yl)methyl)cyclopropane-1-carboxylate] | 270 | 111
COc1ccc(-c2[nH]c3ccc(C4CCN(Cc5ccc6ccccc6n5)CC4)cc3c2C)cc1OC [Example 35, 2-((4-(2-(3,4-dimethoxyphenyl)-3-methyl-1H-indol-5-yl)piperidin-1-yl)methyl)quinoline] | 2680 | 1430
COc1ccc(-c2[nH]c3ccc(C4CCN(Cc5cc6ccccc6n5C)CC4)cc3c2C)cc1OC [Example 33, 2-(3,4-dimethoxyphenyl)-3-methyl-5-(1-((1-methyl-1H-indol-2-yl)methyl)piperidin-4-yl)-1H-indole] | ≥ 50000 | 3720
COc1ccc(-c2[nH]c3ccc(C4CCN(Cc5ccc(N6CCCC6)cc5)CC4)cc3c2C)cc1OC [Example 46, 2-(3,4-dimethoxyphenyl)-3-methyl-5-(1-(4-(pyrrolidin-1-yl)benzyl)piperidin-4-yl)-1H-indole] | 3290 | 746
COc1ccc(-c2[nH]c3ccc(C4CCN(C5CCN(CCCSC)CC5)CC4)cc3c2C)cc1OC [Example 53, 2-(3,4-dimethoxyphenyl)-3-methyl-5-(1′-(3-(methylthio)propyl)-[1,4′-bipiperidin]-4-yl)-1H-indole] | 188 | 116
COc1ccc(-c2[nH]c3ccc(C4CCN(C5CCN(CCC(C)C)CC5)CC4)cc3c2C)cc1OC [Example 77, 2-(3,4-dimethoxyphenyl)-5-(1′-isopentyl-[1,4′-bipiperidin]-4-yl)-3-methyl-1H-indole] | 522 | 218
COc1ccc(-c2[nH]c3ccc(C4CCN(C5CCN(C(C)=O)CC5)CC4)cc3c2C)cc1OC [Example 12, 1-(4-(2-(3,4-dimethoxyphenyl)-3-methyl-1H-indol-5-yl)-[1,4′-bipiperidin]-1′-yl)ethan-1-one] | 1340 | 649
COc1ccc(-c2[nH]c3ccc(C4CCN(C5CCN(C6CCCC(C(F)(F)F)C6)CC5)CC4)cc3c2C)cc1OC (centres unmarked) [Example 73] | 5090 | 100
COc1ccc(-c2[nH]c3ccc(C4CCN(C5CCN(C6CCCC(C(F)(F)F)C6)CC5)CC4)cc3c2C)cc1OC (centres unmarked) [Example 79] | 2320 | 122
COc1ccc(-c2[nH]c3ccc(C4CCN(CCCO)CC4)cc3c2C)cc1OC [Example 5, 3-(4-(2-(3,4-dimethoxyphenyl)-3-methyl-1H-indol-5-yl)piperidin-1-yl)propan-1-ol] | 1710 | 447
CCCN1CCC(N2CCC(c3ccc4[nH]c(-c5ccc(OC)c(OC)c5)c(C)c4c3)CC2)CC1 [Example 63, 2-(3,4-dimethoxyphenyl)-3-methyl-5-(1′-propyl-[1,4′-bipiperidin]-4-yl)-1H-indole] | 321 | 132
COc1ccc(-c2[nH]c3ccc(C4CCN(Cc5ccc(N(C)C)c6ccccc56)CC4)cc3c2C)cc1OC [Example 19, 4-((4-(2-(3,4-dimethoxyphenyl)-3-methyl-1H-indol-5-yl)piperidin-1-yl)methyl)-N,N-dimethylnaphthalen-1-amine] | 10500 | 2550
COc1ccc(-c2[nH]c3ccc(C4CCN(C5CCCN(C(C)C)CC5)CC4)cc3c2C)cc1OC (centres unmarked) [Example 92, 2-(3,4-dimethoxyphenyl)-5-(1-(1-isopropylazepan-4-yl)piperidin-4-yl)-3-methyl-1H-indole] | 576 | 59

Further lines, results first:

IC50 [1] [nM] | IC50 [2] [nM] | Structure (SMILES)
445 | 3230 | COc1ccc(-c2[nH]c3ccc(C4CCN(C(=O)CN5CCCCC5C[C@@H]5CCCN5C)CC4)cc3c2C(C)C)cc1OC (stereo partly drawn) [Example 225, 1-(4-(2-(3,4-dimethoxyphenyl)-3-isopropyl-1H-indol-5-yl)piperidin-1-yl)-2-(2-(((S)-1-methylpyrrolidin-2-yl)methyl)piperidin-1-yl)ethan-1-one]
160 | 2130 | CCc1c(-c2ccc(OC)c(OC)c2)[nH]c2ccc(C3CCN(C(=O)CNCC(C)(C)CO)CC3)cc12 [Example 164, 1-(4-(2-(3,4-dimethoxyphenyl)-3-ethyl-1H-indol-5-yl)piperidin-1-yl)-2-((3-hydroxy-2,2-dimethylpropyl)amino)ethan-1-one]
212 | ≥ 50000 | COc1ccc(-c2[nH]c3ccc(C4CCN(C(=O)CNc5cc(C(C)(C)C)n[nH]5)CC4)cc3c2C(C)C)cc1OC [Example 216, 2-((3-(tert-butyl)-1H-pyrazol-5-yl)amino)-1-(4-(2-(3,4-dimethoxyphenyl)-3-isopropyl-1H-indol-5-yl)piperidin-1-yl)ethan-1-one]
2380 | 10600 | COc1ccc(-c2[nH]c3ccc(C4CCN(Cc5ccc(OC(F)(F)F)cc5)CC4)cc3c2C(C)C)cc1OC [Example 271, 2-(3,4-dimethoxyphenyl)-3-isopropyl-5-(1-(4-(trifluoromethoxy)benzyl)piperidin-4-yl)-1H-indole]
344 | 157 | COc1ccc(-c2[nH]c3ccc(C4CCN(C5CCCNCC5)CC4)cc3c2C)cc1OC (centres unmarked) [Example 103, 5-(1-(azepan-4-yl)piperidin-4-yl)-2-(3,4-dimethoxyphenyl)-3-methyl-1H-indole]
1340 | 882 | CNCCN1CCC(c2ccc3[nH]c(-c4ccc(OC)c(OC)c4)c(CC4CC4)c3c2)CC1 [Example 117, 2-(4-(3-(cyclopropylmethyl)-2-(3,4-dimethoxyphenyl)-1H-indol-5-yl)piperidin-1-yl)-N-methylethanamine di-trifluoroacetic acid]
